{"source": "the NIST ThermoML archive (doi:10.1016/j.fluid.2012.05.003)", "details": "Crystal; DTA", "note": "± gives the expanded uncertainty stated by the source."}
{"smiles": "O=C(O)CNCP(=O)(O)O", "note": "[(phosphonomethyl)glycine]", "values": [{"measurement": "Normal melting temperature", "value": "214.7 ± 0.5", "unit": "°C"}]}
